Measured values: ChEMBL document CHEMBL1127141, “Monocyclic -lactam inhibitors of human leukocyte elastase. Stereospecific synthesis and activity of 3,4-disubstituted-2-azetidinones” (Bioorg Med Chem Lett, 1993)

Legend:
[1] = target: T1, Neutrophil elastase (Homo sapiens) (UniProt P08246); assay: Compound was evaluated for the inhibitory activity against Human leukocyte elastase
T1 sequence (whole entry): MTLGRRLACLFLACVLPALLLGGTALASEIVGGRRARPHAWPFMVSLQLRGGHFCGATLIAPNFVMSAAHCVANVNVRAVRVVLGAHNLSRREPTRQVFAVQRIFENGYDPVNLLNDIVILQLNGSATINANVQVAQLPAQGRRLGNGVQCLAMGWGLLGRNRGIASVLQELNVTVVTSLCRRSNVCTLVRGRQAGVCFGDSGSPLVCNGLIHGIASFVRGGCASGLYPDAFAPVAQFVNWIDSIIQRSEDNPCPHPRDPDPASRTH

[2] = target: T2, Neutrophil elastase (Homo sapiens, UniProt P08246); assay: Compound was evaluated for the inhibitory activity against Human leukocyte elastase; […]
T2 sequence (P08246 whole entry): T1 sequence (whole entry)

Compound | K obs / 1 [1] [M⁻¹ s⁻¹] | Ki [2] [µM]
CC[C@@H]1C(=O)N(C(=O)NCc2ccccc2)[C@H]1Oc1ccc(C(=O)O)cc1 | 424 | –
CCC1C(=O)N(C(=O)NCc2ccccc2)C1Oc1ccc(C(=O)O)cc1 (trans isomer) | 2480 | –
CC[C@H]1C(=O)N(C(=O)NCc2ccccc2)[C@H]1Oc1ccc(C(=O)O)cc1 | – | 5.6
CC[C@@H]1C(=O)N(C(=O)NCc2ccccc2)[C@@H]1Oc1ccc(C(=O)O)cc1 | 383 | –
